Laboratory results: patent EP0900207B1, “PYRAZINONE THROMBIN INHIBITORS” (MERCK & CO., INC., priority 1996, dated 1997)

Test system: Male Sprague-Dawley rats
Test: Rat ferric chloride assay of thrombotic occlusion of the carotid artery
Format: in vivo
Conditions: continuous intravenous infusion 10 µg/kg/min
Protocol: Studies of 3-(2-Phenylethylamino)-6-methyl-1-(2-amino-6-methyl-5-methylenecarboxamidomethylpyridinyl)-2-pyridinone using the following rat ferric chloride assay substantially as described in Thrombosis Research, No. 60, page 269(1990) by Kurtz et al were used to determine in vivo activity of the thrombin inhibitors of the invention. Male Sprague-Dawley rats (body weights 200-350 grams) were anesthetized with dial-urethane solution (0.1 ml/100 gm body weight i.p.), and a lateral tail vein was cannulated with a 23 gauge needle connected to a 12 inch length of PE50 tubing. The tubing was attached to a 3-way valve by a tubing adapter. Saline (control) or test compound, as appropriate, was administered via the tail vein catheter. A tracheostomy was performed with a 0.75 inch length of PE205 tubing. The right carotid artery is exposed and a 1.3 mm diameter Doppler flow probe was placed on the vessel. Body temperature was maintained at 37°C using a heat lamp.
6 rats were randomized to continuous intravenous infusions of saline or test compound administered via the tail vein. Test compound was administered at a rate of 10 µg/kg/min. Treatment infusions were initiated 60 min before the placement of a 3 mm square piece of Whatman No. 1 filter paper saturated with 35% FeCl3 onto the exposed carotid artery distal to the flow probe. […]

Q: What does the source list for “3-(2-Phenylethylamino)-6-methyl-1-(2-amino-6-methyl-5-methylenecarboxamidomethylpyridinyl)-2-pyridinone [Example LXXXII]”?
A: rats showing evidence of thrombotic occlusion (observed up to 90 minutes after application of FeCl3): None; efficacy against thrombotic occlusion (started 60 min before 35% FeCl3 on carotid artery): fully efficacious
